Results on 12 molecules are retold here after patent US7863449B2, “Modulators of muscarinic receptors” (Vertex Pharmaceuticals Incorporated, priority 2004, dated 2011).

For one test, the target named is T1, M4 muscarinic receptor (Homo sapiens, UniProt P08173).
T1 construct: expressed in transfected cells; host or cells: CHO (M4-CHO)
T1 sequence (P08173 1-479): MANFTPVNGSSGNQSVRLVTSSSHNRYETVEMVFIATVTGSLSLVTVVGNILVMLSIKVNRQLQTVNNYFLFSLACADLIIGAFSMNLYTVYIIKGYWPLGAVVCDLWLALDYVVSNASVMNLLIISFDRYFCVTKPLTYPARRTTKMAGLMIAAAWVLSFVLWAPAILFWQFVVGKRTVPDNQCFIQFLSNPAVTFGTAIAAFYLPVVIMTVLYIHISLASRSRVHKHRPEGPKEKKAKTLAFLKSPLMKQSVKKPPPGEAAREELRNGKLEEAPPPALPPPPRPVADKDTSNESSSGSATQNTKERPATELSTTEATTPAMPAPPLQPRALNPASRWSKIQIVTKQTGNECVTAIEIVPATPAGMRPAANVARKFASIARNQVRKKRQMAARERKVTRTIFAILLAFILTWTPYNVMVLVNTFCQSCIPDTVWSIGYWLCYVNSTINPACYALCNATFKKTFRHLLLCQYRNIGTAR
Nature of the test: Functional mobilization of intracellular calcium (FLIPR), M4-CHO cells. The class given is cell-based. The conditions noted are these: for Emax: 100% efficacy is the maximum response obtained using Carbachol as a control; for M4 Activity: M4-CHO cells, FLIPR calcium mobilization. In a few lines:
(§1)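 Calcium flux recorded 60 s (ex 488, em 540 nm) in dye-loaded M1- or M4-CHO cells in pH 7.4 buffer with 1 mM probenecid. Inhibition measured against carbachol EC80 after 15 min compound pre-incubation or co-addition; agonism measured by compound addition alone. Final DMSO 0.5%.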
Background: Calcium assays in cells follow changes in intracellular calcium, usually with a dye or a luminescent sensor.

The next test deals with T2, M1 muscarinic receptor (Homo sapiens, UniProt P11229).
T2 construct: expressed in transfected cells; host or cells: CHO (M1-CHO)
T2 sequence (P11229 1-460): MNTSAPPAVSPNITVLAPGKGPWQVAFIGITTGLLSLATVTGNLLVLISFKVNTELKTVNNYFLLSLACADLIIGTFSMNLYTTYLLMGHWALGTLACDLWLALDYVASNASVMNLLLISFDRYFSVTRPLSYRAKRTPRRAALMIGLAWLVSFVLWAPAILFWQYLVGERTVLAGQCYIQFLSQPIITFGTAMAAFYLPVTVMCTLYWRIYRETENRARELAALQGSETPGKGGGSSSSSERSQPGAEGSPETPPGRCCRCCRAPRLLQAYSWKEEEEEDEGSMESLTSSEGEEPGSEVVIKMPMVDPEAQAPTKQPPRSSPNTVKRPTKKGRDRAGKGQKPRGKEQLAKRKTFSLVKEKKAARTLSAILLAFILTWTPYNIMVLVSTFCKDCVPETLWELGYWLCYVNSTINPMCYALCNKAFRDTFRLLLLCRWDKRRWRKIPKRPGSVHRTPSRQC
Nature of the test: Functional mobilization of intracellular calcium (FLIPR), M1-CHO cells. The class given is cell-based. Conditions: for Emax: 100% efficacy is the maximum response obtained using Carbachol as a control; for M1 Activity: M1-CHO cells, FLIPR calcium mobilization. Summed up:
as §1

In the case of `O=C1c2ccccc2C2(CCN(C3CCCCCC3)CC2)N1Cc1ccccc1` [compound 347], on M4 muscarinic receptor, the maximum response (Emax) (commonly the greatest response seen or fitted, relative to the assay's reference) was under 25% and the “M4 Activity” value was “+ (activity was measured to be greater than 5.0 μM)”. At M1 muscarinic receptor, the Emax fell in the range of 25 to 100% and the “M1 Activity” value is “+ (activity was measured to be greater than 5.0 μM)”.

In the case of `CC(=O)N1Cc2ccccc2C2(CCN(C3CC4CCC(C3)N4C(=O)OC3CCC3)CC2)C1` (stereo not drawn) [compound 348], on M4 muscarinic receptor, the Emax was 25 to 100% and the “M4 Activity” value is listed as “+++ (activity was measured to be less than 1.0 μM)”. Also, on M1 muscarinic receptor, the maximal response (Emax) fell in the range of 25 to 100% and the “M1 Activity” value is listed as “+++ (activity was measured to be less than 1.0 μM)”.

For `CC(=O)N1Cc2ccccc2C2(CCN(C3CCCCCC3)CC2)C1` [compound 349], on M4 muscarinic receptor, the Emax was 25 to 100% and the “M4 Activity” value is “+++ (activity was measured to be less than 1.0 μM)”. Moreover, on M1 muscarinic receptor, the Emax lay within 25 to 100% and the “M1 Activity” value was “+++ (activity was measured to be less than 1.0 μM)”.

On to `CCOC(=O)N1C2CCC1CC(N1CCC3(CC1)CN(C(=O)NC(C)C)Cc1ccccc13)C2` (stereo not drawn) [compound 350], for which, at M4 muscarinic receptor, the Emax was in the range of 25 to 100% and the “M4 Activity” value is given as “+++ (activity was measured to be less than 1.0 μM)”. Also, at M1 muscarinic receptor, the maximum response (Emax) is 25 to 100% and the “M1 Activity” value was “+++ (activity was measured to be less than 1.0 μM)”.

With `Cc1cc(C(=O)N2Cc3ccccc3C3(CCN(C4CC5CCC(C4)N5C(=O)O[C@@H]4CCOC4)CC3)C2)nn1C` (stereo partly drawn) [compound 351], on M4 muscarinic receptor, the maximum response (Emax) was 25 to 100% and the “M4 Activity” value is on record as “+++ (activity was measured to be less than 1.0 μM)”. Also, at M1 muscarinic receptor, the Emax was 25 to 100% and the “M1 Activity” value is “+++ (activity was measured to be less than 1.0 μM)”.

As to `O=C1NC2(CCN(CC3CCOC3)CC2)c2ccccc21` (stereo not drawn) [compound 352], at M4 muscarinic receptor, the Emax is under 25% and the “M4 Activity” value was “+ (activity was measured to be greater than 5.0 μM)”. For the same molecule, at M1 muscarinic receptor, the Emax is under 25% and the “M1 Activity” value is given as “+ (activity was measured to be greater than 5.0 μM)”.

For `CCCOC(=O)N1C2CCC1CC(N1CCC3(CC1)CN(S(=O)(=O)CCC)Cc1ccccc13)C2` (stereo not drawn) [compound 353], at M4 muscarinic receptor, the Emax was 25 to 100% and the “M4 Activity” value is “+++ (activity was measured to be less than 1.0 μM)”. In addition, on M1 muscarinic receptor, the Emax was 25 to 100% and the “M1 Activity” value was “+++ (activity was measured to be less than 1.0 μM)”.

On to `CC(=O)N1Cc2ccccc2C2(CCN(C3CC4CCC(C3)N4C(=O)O[C@H]3CCOC3)CC2)C1` (stereo partly drawn) [compound 354], for which, on M4 muscarinic receptor, the maximal effect (Emax) was 25 to 100% and the “M4 Activity” value is “+++ (activity was measured to be less than 1.0 μM)”. At M1 muscarinic receptor, the maximal effect (Emax) was in the range of 25 to 100% and the “M1 Activity” value was “+++ (activity was measured to be less than 1.0 μM)”.

For `CCOC(=O)N1C2CCC1CC(N1CCC3(CC1)CN(S(=O)(=O)c1ccc(C#N)cc1)Cc1ccccc13)C2` (stereo not drawn) [compound 355], at M4 muscarinic receptor, the Emax lay within 25 to 100% and the “M4 Activity” value was “+++ (activity was measured to be less than 1.0 μM)”. At M1 muscarinic receptor, the maximal response (Emax) lay in the range of 25 to 100% and the “M1 Activity” value is given as “+++ (activity was measured to be less than 1.0 μM)”.

With `CCOC(=O)N1CCC(CN2CCC3(CC2)CN(S(=O)(=O)N(C)C)Cc2ccccc23)CC1` [compound 356], at M4 muscarinic receptor, the maximal effect (Emax) was in the range of 25 to 100% and the “M4 Activity” value is recorded as “+++ (activity was measured to be less than 1.0 μM)”. At M1 muscarinic receptor, the Emax lay in the range of 25 to 100% and the “M1 Activity” value was “+++ (activity was measured to be less than 1.0 μM)”.

With `CCCOC(=O)N1C2CCC1CC(N1CCC3(CC1)CN(C(C)=O)Cc1ccccc13)C2` (stereo not drawn) [compound 357], at M4 muscarinic receptor, the Emax was 25 to 100% and the “M4 Activity” value was “+++ (activity was measured to be less than 1.0 μM)”. Besides, on M1 muscarinic receptor, the Emax is 25 to 100% and the “M1 Activity” value is “+++ (activity was measured to be less than 1.0 μM)”.

Consider `CCOC(=O)N1C2CCC1CC(N1CCC3(CC1)CN(C(=O)NC1CCCCC1)Cc1ccccc13)C2` (stereo not drawn) [compound 358], for which, on M4 muscarinic receptor, the Emax is 25 to 100% and the “M4 Activity” value is reported as “+++ (activity was measured to be less than 1.0 μM)”. For the same molecule, on M1 muscarinic receptor, the Emax lay in the range of 25 to 100% and the “M1 Activity” value is “+++ (activity was measured to be less than 1.0 μM)”.
